The subject of data set [1] is microorganism causing Treponema dysentery. Put plainly: experiments against the microorganism causing Treponema dysentery.
For data set [2] the test system is unchanged. The experiment in a line: pigs infected with Treponema dysentery (Example VI). The format is in vivo. The text has this: Twenty pigs, 3 months old, were infected with the microorganism causing Treponema dysentery by administering to them feed mixed with a homogenous mixture of contents of the intestines and intestinal mucous membranes of two animals suffereing from the disease. The infected pigs were divided into four groups of five animals each and the animals were fed with the feed as a slurry diluted 1:1 with water for 1 week. The total amount of feed per animal was 1.2 kg each day and was given in two portions.
After 5 days, the first symptoms of the disease were observed from the thin faeces and confirmed by a microbiological investigation of the faeces and […] a week, the animals were treated as follows:
group 2: 100 ppm of tylosin were added to the feed;
group 3: 25ppm of dihydromocimycin were added to the feed; and
group 4: 50 ppm of dihydromocimycin were added to the feed.
The antibiotic-enriched feed was administered for a week. After that week, feed without any antibiotic was given again. Recovery from the infection was observed from the weights of the animals and from inspection samples of the faeces, macroscopically from their consistencies, and microscopically by means of a specific immuno-fluoroescence technique. During the test, one animal of each of groups 1, 3 and 4 died.
The results are shown in the following Table wherein the weights indicated are the averages at that time of the still living animals. The consistency of the faeces is indicated as follows:
+ means thin liquid; ± means thick liquid; - means normal. The results of the immuno-fluorescence technique are indicated quantitatively by indicating the number of Treponemas in the visual field: 5 means very crowded; 4 means many; 3 means about 10 Treponemas; 2 means 1 or 2 Treponemas, 1 means more visual fields necessary to find one Treponema, and - means negative.

For data set [3], the system named is same microorganisms as mocimycin. Put plainly: in vitro antimicrobial activity, comparison of the two antibiotics. The format is cell-based.
Data set [4] has as its system Pseudomonas aeruginosa 2396. Put plainly: micro liquid serial dilution test (Table II). The note with it: 18 hours at 30° C or 37° C, recently isolated hospital strain, read-out: Minimum inhibitory concentration. The format is cell-based. The procedure: (§1) The microbiological activity of the antibiotic preparation towards a number of micoorganisms has been determined by a micro liquid serial dilution test:
(§2) A stock solution of the test compounds at a concentration of 200 μg/ml in 0.05 molar phosphate buffer at a pH of 6.5 was prepared and serial 1:1 dilutions were made with a liquid medium inoculated with the test organism, using conventional glass spot-test plates. The plates were incubated 18 hours at 30° C or 37° C. The minimum inhibitory concentration (MIC) which is the smallest concentration of compound completely inhibiting the growth of the test organism is read and calculated in μg/ml.
(§3) wherein ') indicates penicillinase-producer; ") indicates recently isolated hospital strain.

For data set [5], the system named is Staphylococcus aureus A 355. Put plainly: micro liquid serial dilution test (Table II). The note with it: A355, 18 hours at 30° C or 37° C, penicillinase-producer, read-out: Minimum inhibitory concentration. The format is cell-based. The procedure: as §1, §2, §3
The test system of the next data set is Proteus morganii 2241. The experiment in a line: micro liquid serial dilution test (Table II). The format is cell-based. The note with it: Morganella morganii, 18 hours at 30° C or 37° C, recently isolated hospital strain, read-out: Minimum inhibitory concentration. The procedure: as §1, §2, §3
Data set [6] concerns Staphylococcus aureus L 160a. Put plainly: micro liquid serial dilution test (Table II). The format is cell-based. The note with it: 18 h, read-out: Minimum inhibitory concentration. The procedure:
as §1, §2, §3

The subject of the next data set is chickens. Put plainly: three-month oral toxicity in chickens. The format is in vivo. The note with it: up to 0.1% in the diet, three months. The text has this: (§4) The toxicity of the antibiotic has been studied in various animals.
Another data set concerns Actinobacillus equuli. The experiment in a line: activity against Actinobacillus equuli (in words). The format is cell-based.
Data set [7] concerns Brucella melitensis A 488. Put plainly: microbe, parasite or virus in culture. The note with it: A488, 18 h, read-out: Minimum inhibitory concentration. The format is cell-based.
The test system of data set [8] is organisms of the Mycoplasma genus (pleuro-pneumonia like organisms). The experiment in a line: in vitro activity against Mycoplasma genus. The format is cell-based.
For the next data set, the system named is mice. Put plainly: Acute toxicity in mice. The format is in vivo.
From the text: as §4

Data set [9] is described as follows: growth promotion in pigs (Example III). The format is in vivo. The note with it: pigs, summary of Table VII. The procedure:
The sodium salt of mocimycin as obtained in Example I, was pre-mixed with wheat flour which mixture, added to the feed, was administered to pigs. The amount of the antibiotic present in the feed (based on the weight of the feed) is given hereinbelow in Table VII, in which the average relative weights of the pigs after 6 and 12 weeks, respectively are given.

For another data set, the system named is rats. The experiment in a line: three-month oral toxicity in rats. The format is in vivo. The note with it: up to 0.1% in the diet, three months.
From the text: as §4

In data set [10] the test system is human-pathogenic microorganisms. Put plainly: in vitro activity against human-pathogenic microorganisms. The format is cell-based. The note with it: summary of Table II. The procedure:
as §1, §2

For data set [11], the system named is Mycoplasma suipneumoniae A 2174. Put plainly: micro liquid serial dilution test (Table II). The format is cell-based. The note with it: Mesomycoplasma hyopneumoniae, A2174; 18 hours at 30° C or 37° C; read-out: Minimum inhibitory concentration. The procedure:
as §1, §2

For data set [12], the system named is Pasteurella multocida A 723. Put plainly: micro liquid serial dilution test (Table II). The format is cell-based. The note with it: A723, 18 hours at 30° C or 37° C, read-out: Minimum inhibitory concentration. The procedure: as §1, §2
The test system of another data set is Erwinia caretovora W 9. Put plainly: micro liquid serial dilution test (Table II). The format is cell-based. The note with it: W9, 18 hours at 30° C or 37° C, read-out: Minimum inhibitory concentration. The procedure:
as §1, §2

In another data set the test system is Mycoplasma gallisepticum. The experiment in a line: in vivo activity against Mycoplasma gallisepticum.
In data set [13] the test system is Clostridium welchii A 738. The experiment in a line: microbe, parasite or virus in culture. The format is cell-based. The note with it: A738, 18 h, read-out: Minimum inhibitory concentration.
For another data set, the system named is Treponema hyodysenteriae. The experiment in a line: early experiments against Treponema dysentery. The note with it: swine. The format is in vivo. The procedure: In an early stage of investigation, it was presumed that mocimycin, having a similar anti-microbial spectrum to that of tylosin (Merck Index, 8th Ed. page 1089), might be effective against Treponema hyodysenteriae causing Treponema dysentery of Vibrio Doyle, one of the most common swine diseases. […] For that reason, no further investigations were carried out.

Data set [14] in a line: Stability of the solid antibiotic. The format is physicochemical. The note with it: for stable (solid): 100% relative humidity.
Where [15] appears, read: dihydromocimycin 50 ppm, after 3 weeks, one symbol per animal.

This note sets out measurements from patent US4062948A, “Dihydromocimycin antibiotics” (Gist-Brocades N.V., priority 1970, dated 1977).

Values after ≈ are worked out from the molar mass of the structure shown. “Also recorded” adds a separate entry of the source.

As for `CC=CC=CC1OC(O)(C(CC)C(=O)NCC=CC=C(C)C(OC)C(C)C2OC(C=CC=CC=C(C)C(=O)C3=C(O)CCNC3=O)C(O)C2O)C(O)C(O)C1(C)C` (stereo not drawn) [dihydromocimycin], the “treatment of Treponema dysentery compared with tylosin and mocimycin” value in [1] is “superior to tylosin (and also to mocimycin)”. For the same molecule, in data set [1] (tylosin-resistant strains), the “activity against tylosin-resistant strains” value is “active against tylosin-resistant strains”. The “activity relative to tylosin” value in data set [2] (administered amounts taken into account) was “at least 4 times”. Besides, the Weights in [2] (dihydromocimycin 25 ppm group, after 1 week (start of antibiotics)) is given as 21.3 kg; in [2] (dihydromocimycin 25 ppm group, just before infection (baseline)) it was 24.2 kg; in [2] (dihydromocimycin 25 ppm, after 2 weeks), 20.2 kg; in data set [2] (dihydromocimycin 25 ppm, after 3 weeks), 24.0 kg; in data set [2] (dihydromocimycin 50 ppm group, after 1 week (start of antibiotics)), 21.6 kg; in data set [2] (dihydromocimycin 50 ppm group, just before infection (baseline)), 23.4 kg. The Weights was 21.2 kg in data set [2] (dihydromocimycin 50 ppm, after 2 weeks) and 23.0 kg in data set [2] (dihydromocimycin 50 ppm, after 3 weeks). Also, the Faeces consistency result in data set [2] (setting [15]) is listed as “-- +-”. Besides, the Immunofluorescence result in [2] (setting [15]) is listed as “-- -- -- --”. In addition, the “speed of cure compared with tylosin” value in [2] (faeces consistency and immunofluorescence) is “cured markedly faster than the animals treated with tylosin”. The “animals died during the test” value is “one” in [2] (group 3, dihydromocimycin 25 ppm) and “one” in data set [2] (group 4, dihydromocimycin 50 ppm). For the same molecule, the “in vitro activity compared with mocimycin” value in data set [3] is “in many cases it shows even a better activity than mocimycin; also recorded: more active than mocimycin against many microorganisms”.

In the case of `CC=CC=CC1OC(O)(C(CC)C(=O)NCC=CC=C(C)C(OC)C(C)C2OC(C=CC=CC=C(C)C(=O)c3c(O)cc[nH]c3=O)C(O)C2O)C(O)C(O)C1(C)C` (stereo not drawn) [mocimycin], the MIC in data set [4] was above 100 µg/mL; in [5] it was 100 µg/mL (≈ 125 µM); in the data set with Proteus morganii 2241, 100 µg/mL (≈ 125 µM); in data set [6], above 200 µg/mL; in [7], 1 µg/mL (≈ 1.25 µM); in [11] it was 1 µg/mL (≈ 1.25 µM). The MIC in data set [12] is 4 µg/mL (≈ 5.02 µM); in the data set with Erwinia caretovora W 9 it was 6 µg/mL (≈ 7.53 µM); in [13] it was 10 µg/mL (≈ 12.5 µM). Besides, the undesired pharmacological effect entry with chickens and in the data set with rats was “does not result in any undesired pharmacological effect” throughout. Moreover, in the data set on Actinobacillus equuli, the result was active. Also, the activity in vitro entry in data set [8] is recorded as “considerable activity in vitro”. The lethality result with mice (1,000 mg/kg i.p., mice) is “does not kill mice”. For the same molecule, the acute toxicity entry in the data set with mice (various animals) is “very low”. For the same molecule, the growth promoting effect result in [9] is “growth promoting effect”. Also, in [10], the “activity against a number of human-pathogenic microorganisms” value was “almost no activity”. In addition, the “activity against Mycoplasma gallisepticum in vivo” value with Mycoplasma gallisepticum was “no activity”. In the data set on Treponema hyodysenteriae, the “activity against Treponema dysentery compared with tylosin” value was “active against this disease, but not more so than tylosin”. The “no loss in activity of the solid” value in data set [14] (25° C and 37° C, low relative humidities) was “at least 5 months”. The entries for the “stable (solid)” value in [14] (25° C) and in data set [14] (37° C) were 3 months and 2 months, respectively.
